Two compounds from ChEMBL document CHEMBL4311969, “Polygala tenuifolia-Acori tatarinowii herbal pair as an inspiration for substituted cinnamic α-asaronol esters: Design, synthesis, anticonvulsant activity, and inhibition of lactate dehydrogenase study” (Eur J Med Chem, 2019) can be followed below.

Molecules are shown by their SMILES. Where “and” joins values, the source holds several entries; their conditions need not be identical. Equal values may be shown once. A value given as a limit tells only on which side of the number the result lay.

Data set [1] can be described thus: Protective index, ratio of TD50 for neurotoxicity against ip dosed Kunming mouse assessed as time remained in rod measured at 0.5 hrs by rotarod test to ED50 for […] activity in ip dosed Kunming mouse assessed as reduction in formalin-induced paw licking administered 0.5 hrs before formalin stimulation. It counts as toxicity, organism-based. The settings on record: in vivo, read-out: PI.

The nature of data set [2]: Tmax in Sprague-Dawley rat heart at 50 mg/kg, po. It counts as ADME, organism-based.
Data set [3] can be described thus: Half life in Sprague-Dawley rat at 20 mg/kg, iv measured upto 480 mins by LC-MS/MS analysis. The format is ADME, organism-based. The following applies: in vivo.
The nature of data set [4]: Volume of distribution at steady state in Sprague-Dawley rat at 50 mg/kg, po measured upto 480 mins by LC-MS/MS analysis. The settings on record: in vivo, 8 h. It counts as ADME, organism-based.
The target in data set [5] is GABA-A receptor; alpha-1/beta-2/gamma-2 (Homo sapiens) (UniProt P14867+P47870+P18507). Description: Agonist activity at GABA alpha1beta2gamma2 receptor in human HEK293T at 3.3 to 300 uM at -50 mV holding potential by whole cell voltage clamp assay relative to control. The format is protein-complex assay.
Data set [6] can be described thus: Cmax in Sprague-Dawley rat at 50 mg/kg, po measured upto 480 mins by LC-MS/MS analysis. The settings on record: in vivo. The format is ADME, organism-based. The arrangement: dose 50 mg/kg, route oral.
In data set [7] the test system is Mus musculus. Description: Anticonvulsant activity in Kunming mouse assessed as reduction in ScPTZ-induced clonic seizure at 100 mg/kg, ip administered 0.5 hrs before ScPTZ stimulation relative to control. It counts as functional. The arrangement: scale not given: the % may be the effect or the level left.
Data set [8] relates to Mus musculus. Nature of the data set: Anticonvulsant activity in Kunming mouse assessed as MES-induced hind limb extension at 100 mg/kg, ip administered 0. 5 to 4 hrs before MES stimulation relative to control. The format is functional.
Data set [9] concerns Mus musculus. Nature of the data set: Anticonvulsant activity in Kunming mouse assessed as reduction in ScPTZ-induced seizure at 300 mg/kg, ip administered 0.25 to 2 hrs before ScPTZ stimulation relative to control. Set-up: scale not given: the % may be the effect or the level left. It counts as functional.
A short description of data set [10]: Protective index, ratio of TD50 for neurotoxicity against ip dosed Kunming mouse assessed as time remained in rod measured at 0.5 hrs by rotarod test to ED50 for anticonvulsant activity in ip dosed Kunming mouse assessed as reduction in ScPTZ-induced seizure administered 0.5 hrs before ScPTZ stimulation. The settings on record: in vivo, read-out: PI. It counts as toxicity, organism-based. (In general: The rotarod test checks motor coordination on a turning rod.)

Data set [11] can be described thus: Drug uptake in Sprague-Dawley rat spleen at 50 mg/kg, po. The format is ADME, organism-based. The settings on record: in vivo.
A short description of data set [12]: Oral bioavailability in Sprague-Dawley rat at 20 mg/kg measured upto 480 mins by LC-MS/MS analysis. The format is ADME, organism-based. The settings on record: in vivo.
In data set [13] the test system is Mus musculus. Nature of the data set: […] activity in ip dosed Kunming mouse assessed as reduction in formalin-induced paw licking administered 0.5 hrs before formalin stimulation. The format is functional.
Data set [14] is described as follows: Drug uptake in Sprague-Dawley rat kidney at 50 mg/kg, po. The format is ADME, organism-based. The following applies: in vivo.
Data set [15] in a line: Drug metabolism in Sprague-Dawley rat assessed as retention time by HPLC/MS analysis. It counts as ADME.
For data set [16], the system named is Mus musculus. Nature of the data set: Anticonvulsant activity in Kunming mouse assessed as MES-induced hind limb extension at 50 mg/kg, ip administered 0.5 and 2 hrs before MES stimulation relative to control. The format is functional.
The nature of data set [17]: Cmax in Sprague-Dawley rat at 100 mg/kg, po measured upto 480 mins by LC-MS/MS analysis. It counts as ADME, organism-based. Set-up: dose 100 mg/kg, route oral. The settings on record: in vivo.
The nature of data set [18]: Tmax in Sprague-Dawley rat at 50 mg/kg, po measured upto 480 mins by LC-MS/MS analysis. It counts as ADME, organism-based. The settings on record: in vivo.
Data set [19] is described as follows: Cmax in Sprague-Dawley rat at 20 mg/kg, po measured upto 480 mins by LC-MS/MS analysis. Set-up: dose 20 mg/kg, route oral. The settings on record: in vivo. It counts as ADME, organism-based.
Data set [20] is described as follows: Tmax in Sprague-Dawley rat brain at 50 mg/kg, po. It counts as ADME, organism-based.
For data set [21], the system named is Mus musculus. Description: Anticonvulsant activity in Kunming mouse assessed as reduction in ScPTZ-induced seizure at 100 mg/kg, ip administered 0.5 hrs before ScPTZ stimulation relative to control. Set-up: scale not given: the % may be the effect or the level left. It counts as functional.
For data set [22], the system named is Mus musculus. Nature of the data set: Potency index, ratio of ED50 of valproic acid to ED50 of compound anticonvulsant activity in ip dosed Kunming mouse assessed as MES-induced hind limb extension administered 0.5 hrs before MES stimulation. It counts as functional.
The test system of data set [23] is Mus musculus. Nature of the data set: Potency index, ratio of ED50 of carbamazepine to ED50 of compound anticonvulsant activity in ip dosed Kunming mouse assessed as MES-induced hind limb extension administered 0.5 hrs before MES stimulation. The format is functional.

The term Tmax denotes the time from dosing to the highest level. By half-life is commonly meant the time needed for the level to fall by half in the phase considered. A word on the Cmax: it is the maximum level reached in the sampled fluid or tissue. The term bioavailability denotes the share of a dose that reaches the circulation, judged against a reference dose that is usually intravenous. The ED50 is the dose at which the effect has come halfway, by size or by number of responders. As to `COc1cc(OC)c(OC)cc1/C=C/COC(=O)/C=C/c1c(OC)cc(OC)c(OC)c1OC`, the selectivity ratio at 0.5 h in data set [1] was 21.6; in [10], 6.1. Moreover, the Tmax in data set [2] was 60 min; in data set [18], 38.7 min; in data set [20] it was 60 min. In data set [3], the half-life was 22.8 min. Also, in [4], the Vdss came out at 10.17 L/kg. Further, the %max in data set [5] amounted to 356%. For the same compound, the Cmax in data set [6] was determined as 2.04 µg/mL; in data set [17] it was 3.98 µg/mL; in data set [19], 0.98 µg/mL. The Activity in the data set with Mus musculus [7] is on record as 100%; in the data set with Mus musculus [8], 25 - 100%; in the data set with Mus musculus [9], 50%; in the data set on Mus musculus [16], 75%. The Drug uptake entry in data set [11] and in data set [14] was “Active” throughout. The bioavailability in data set [12] was found to be 43.4%. The ED50 in the data set on Mus musculus [13] is 46.3 mg/kg and 97.6 µmol/kg. In [15], the Retention_time was 40.6 min.
Turning to `COc1cc(OC)c(OC)cc1/C=C/COC(=O)/C=C/c1cc(OC)c(OC)c(OC)c1OC`, the results for the selectivity ratio at 0.5 h in data set [1] and in data set [10] were 23.7 and over 6.4, respectively. The half-life in data set [3] is 19.7 min. For the same compound, the Vdss in [4] worked out at 9.26 L/kg. Further, the maximum concentration (Cmax) in data set [6] was determined as 1.89 µg/mL; in [17] it was 3.77 µg/mL; in data set [19], 0.88 µg/mL. For the same compound, the Activity in the data set with Mus musculus [7] was 100%; in the data set on Mus musculus [8], 25 - 100%; in the data set on Mus musculus [9], 50%; in the data set with Mus musculus [21], 100%; in the data set on Mus musculus [16], 75%. This compound also registered a bioavailability in data set [12] of 41.3%. In addition, in the data set with Mus musculus [13], the ED50 is 42.2 mg/kg and 89 µmol/kg. Moreover, the results for the “Ratio ED50” value in the data set on Mus musculus [22] and in the data set with Mus musculus [23] were 23.1 and 1.17, respectively. Also, the Tmax in [18] is 35.6 min.
